Laboratory results reported in ChEMBL document CHEMBL4002565, “Synthesis, biological evaluation and in silico molecular modeling of pyrrolyl benzohydrazide derivatives as enoyl ACP reductase inhibitors” (Eur J Med Chem, 2017).
Converted amounts (≈) assume the structure as drawn.

Key:
[1] = tested on: Mycobacterium tuberculosis; assay: Inhibition of Mycobacterium tuberculosis His6-tagged wild type InhA expressed in Escherichia coli BL21 at 50 uM using DDCoA as substrate relative to control
Staphylococcus aureus = assay: Antibacterial activity against Staphylococcus aureus after 18 hrs by broth microdilution method; type: functional
Escherichia coli = assay: Antibacterial activity against Escherichia coli after 18 hrs by broth microdilution method; type: functional
[2] = tested on: Mycobacterium tuberculosis; assay: Antitubercular activity against Mycobacterium tuberculosis H37Rv after 5 days by microplate Alamar blue assay; type: functional; conditions: 120 h
A549 = assay: Cytotoxicity against human A549 cells by MTT assay; type: cell-based

| SMILES | inhibition [1] [%] | MIC (Staphylococcus aureus) [µg/mL] | MIC (Escherichia coli) [µg/mL] | MIC [2] [µg/mL] | IC50 (A549) [µM] |
| --- | --- | --- | --- | --- | --- |
| Cc1cccc(C(=O)NNC(=O)c2ccc(-n3cccc3)cc2)c1 | 29 | 50 (≈ 157 µM) | 12.5 (≈ 39.1 µM) | 12.5 (≈ 39.1 µM) | 196 |
| O=C(NNC(=O)c1ccc(-n2cccc2)cc1)c1ccc(F)cc1 | 35 | 6.25 (≈ 19.3 µM) | 3.12 (≈ 9.67 µM) | 6.25 (≈ 19.3 µM) | 194 |
| Nc1cccc(C(=O)NNC(=O)c2ccc(-n3cccc3)cc2)c1 |  | 50 (≈ 156 µM) | 25 (≈ 78 µM) | 25 (≈ 78 µM) |  |
| O=C(NNC(=O)c1ccccc1Cl)c1ccc(-n2cccc2)cc1 |  | 12.5 (≈ 36.8 µM) | 6.25 (≈ 18.4 µM) | 3.12 (≈ 9.2 µM) |  |
| CO[C@H]1/C=C/O[C@@]2(C)Oc3c(C)c(O)c4c(O)c(c(/C=N/N5CCN(C)CC5)c(O)c4c3C2=O)NC(=O)/C(C)=C\C=C\[C@H](C)[C@H](O)[C@@H](C)[C@@H](O)[C@@H](C)[C@H](OC(C)=O)[C@@H]1C [RIFAMPIN] |  |  |  | 0.4 (≈ 0.486 µM) |  |
| O=C(NNC(=O)c1ccc(-n2cccc2)cc1)c1ccc(Cl)cc1 | 36 | 6.25 (≈ 18.4 µM) | 3.12 (≈ 9.2 µM) | 3.12 (≈ 9.2 µM) | 40.2 |
| CC[C@@H](CO)NCCN[C@@H](CC)CO [ETHAMBUTOL] |  |  |  | 0.5 (≈ 2.45 µM) |  |
| Cc1ccccc1C(=O)NNC(=O)c1ccc(-n2cccc2)cc1 | 12 | 25 (≈ 78.3 µM) | 12.5 (≈ 39.1 µM) | 12.5 (≈ 39.1 µM) | 196 |
| O=C(NNC(=O)c1cccc([N+](=O)[O-])c1)c1ccc(-n2cccc2)cc1 |  | 50 (≈ 143 µM) | 25 (≈ 71.4 µM) | 25 (≈ 71.4 µM) |  |
| O=C(NNC(=O)c1ccc(Cl)cc1Cl)c1ccc(-n2cccc2)cc1 |  | 12.5 (≈ 33.4 µM) | 3.12 (≈ 8.35 µM) | 3.12 (≈ 8.35 µM) |  |
| O=C(NNC(=O)c1ccc(-n2cccc2)cc1)c1ccccc1 | 13 | 50 (≈ 164 µM) | 25 (≈ 81.9 µM) | 50 (≈ 164 µM) | 248 |
| CCn1cc(C(=O)O)c(=O)c2cc(F)c(N3CCNCC3)cc21 [NORFLOXACIN] |  | 2.02 (≈ 6.33 µM) | 4 (≈ 12.5 µM) |  |  |
| O=C(NNC(=O)c1cccc(Cl)c1)c1ccc(-n2cccc2)cc1 |  | 12.5 (≈ 36.8 µM) | 3.12 (≈ 9.2 µM) | 6.25 (≈ 18.4 µM) |  |
| O=C(NNC(=O)c1ccccc1Br)c1ccc(-n2cccc2)cc1 |  | 6.25 (≈ 16.3 µM) | 3.12 (≈ 8.13 µM) | 3.12 (≈ 8.13 µM) |  |
| O=C(NNC(=O)c1ccc(-n2cccc2)cc1)c1ccc(Br)cc1 | 38 | 6.25 (≈ 16.3 µM) | 3.12 (≈ 8.13 µM) | 3.12 (≈ 8.13 µM) | 40.2 |
| O=C(NNC(=O)c1ccc(-n2cccc2)cc1)c1ccc(O)cc1 | 29 | 25 (≈ 77.8 µM) | 12.5 (≈ 38.9 µM) | 12.5 (≈ 38.9 µM) | 96 |
| COc1ccc(C(=O)NNC(=O)c2ccc(-n3cccc3)cc2)cc1 | 13 | 25 (≈ 74.5 µM) | 25 (≈ 74.5 µM) | 12.5 (≈ 37.3 µM) | 244 |
| O=C(NNC(=O)c1ccc([N+](=O)[O-])cc1)c1ccc(-n2cccc2)cc1 | 22 | 25 (≈ 71.4 µM) | 12.5 (≈ 35.7 µM) | 12.5 (≈ 35.7 µM) | 96 |
| CC(=O)c1cccc(C(=O)NNC(=O)c2ccc(-n3cccc3)cc2)c1 | 31 | 25 (≈ 72 µM) | 12.5 (≈ 36 µM) | 12.5 (≈ 36 µM) | 79.2 |
| Cc1ccc(C(=O)NNC(=O)c2ccc(-n3cccc3)cc2)cc1 |  | 25 (≈ 78.3 µM) | 6.25 (≈ 19.6 µM) | 12.5 (≈ 39.1 µM) |  |
| Oc1cc(Cl)ccc1Oc1ccc(Cl)cc1Cl | > 99 |  |  |  |  |
| O=C(O)c1cn(C2CC2)c2cc(N3CCNCC3)c(F)cc2c1=O [CIPROFLOXACIN] |  | 0.15 (≈ 0.453 µM) |  |  |  |
| Nc1ccccc1C(=O)NNC(=O)c1ccc(-n2cccc2)cc1 |  | 25 (≈ 78 µM) | 12.5 (≈ 39 µM) | 12.5 (≈ 39 µM) |  |
| Nc1ccc(C(=O)NNC(=O)c2ccc(-n3cccc3)cc2)cc1 |  | 25 (≈ 78 µM) | 12.5 (≈ 39 µM) | 12.5 (≈ 39 µM) |  |
